Test results taken from patent US8598342B2, “Methods and compounds for antimicrobial intervention” (President and Fellows of Harvard College, priority 2008, dated 2013).
Entries after “also recorded” stand apart in the source; their conditions may differ.

How the values were obtained:
Format in all cases: cell-based, Staphylococcus aureus
S. aureus [1] = assay: SAR of targocil analogs: MIC and mutation frequency
Source text: Based on the discovery of targocil as an inhibitor of WTA biosynthesis, further studies of the antibiotic were undertaken to elucidate the basis of its activity and to discover other antibiotics based on the structure of targocil. The goal for the initial SAR of targocil was to alter only the A ring to determine modifications that would improved potency as measured by MIC. We developed synthetic chemistry schemes to modify the targocil scaffold and, initially, nineteen different derivatives of targocil were made. […] Modifications to the D ring appear particularly promising. Finally, the optimized compounds from this second round of SAR could then be used to discover modifications to the amine group that could be tolerated.

S. aureus [2] = assay: Two dimensional drug interaction analysis between tunicamycin and targocil; conditions: normally inhibitory concentrations of targocil; 18 h at 30° C.
Experimental: (A) Targocil MIC data for a panel of Gram-positive strains, including MRSA clinical isolates B5271 and 5340A. Growth was monitored in triplicate after 12 h at 28° C. using optical density. (B) Two dimensional drug interaction analysis between tunicamycin and targocil grown for 18 h at 30° C. […] At higher concentrations, tunicamycin is toxic because it inhibits cell wall biosynthesis. […] Varying concentrations of drug were added to […] of S. aureus RN4220 after 5 h and cell count was monitored over time at 30° C. […] Cells were grown at 28° C. for 12 h and monitored for growth using optical density (OD600). Data were normalized to the DMSO controls for each strain. (E) Two classes of mutants were examined: phage resistant (m1 3) and phage sensitive (m4-5).
Having discovered targocil, the next challenge was to identify its target in S. aureus. We first used the natural product tunicamycin to verify that targocil requires the presence of a functional WTA pathway. Although toxic at high concentrations, tunicamycin is a selective TarO inhibitor that abolishes WTA expression at sublethal concentrations. (Hancock I C, Wiseman G, & Baddiley J (1976) Febs Letters 69:75-80) We predicted that tunicamycin should antagonize targocil by preventing flux into the WTA biosynthetic pathway. […]

S. aureus RN4220 = assay: Phage infection (PFUs) of S. aureus grown with tunicamycin; conditions: increasing tunicamycin
[3] = test system: WTA biosynthesis in S. aureus RN4220; assay: PAGE analysis of WTAs isolated from S. aureus RN4220 grown with tunicamycin; conditions: increasing but sub-lethal concentrations of tunicamycin

Compound	mutation frequency, relative to targocil (S. aureus [1]; in vitro)	potency as measured by MIC, relative to targocil (S. aureus [1]; two methoxy groups at R1 and R2 of ring A)	antagonism of targocil by tunicamycin (S. aureus [2])	phage infection (PFUs) (S. aureus RN4220)	WTA biosynthesis (PAGE of isolated WTAs) [3]
CCN(CC)c1nc2c(S(=O)(=O)c3ccccc3)nnn2c2cc(OC)c(OC)cc12 [Compound 4-22-7, N,N-Diethyl-7,8-dimethoxy-3-(phenylsulfonyl)-[1,2,3]triazolo[1,5-a]quinazolin-5-amine]	better	more potent			
tunicamycin			complete protection; also recorded: antagonizes the lethal effect of targocil	dose-dependent decrease	dose-dependent decrease
